Measured values published in patent US20230123889A1, “METHOD FOR DEGRADING BENZO(A)PYRENE WITH A HALOPHILIC BACTERIUM STRAIN OF STAPHYLOCOCCUS HAEMOLITICUS” (KING FAHD UNIVERSITY OF PETROLEUM AND MINERALS, priority 2021, published 2023).
Marks after values point to notes of the source that are not given here.

How the values were obtained:
Type in all cases: cell-based
[1] = tested on: Staphylococcus haemoliticus 10SBZ1A strain; experiment: Bacterial growth assessment (doubling time, CFU/ml) in the presence of BZP and various hydrocarbon substrates as carbon source; settings: for Doubling time (dt, h): strain growing on BaP; for strain dt in the presence of substrate (FIG. 3): substrate as carbon source
Procedure: Bacterial growth assessment in the presence of BZP and various hydrocarbon molecules: effect of pH and salinity. To initiate these experiments, bacteria were pre-cultured in an LB rich medium, and around 5×10^5 colony forming units (CFU) of these bacteria were added to 50 ml BH medium containing 100 μmol BZP, unless otherwise stated. Non-polar substrates pyrene, phenanthrene, naphthalene and anthracene were dissolved in dimethyl sulfoxide (DMSO) [0.1 g/ml], while the water-soluble substrates SALC and CATC were dissolved directly in BH medium. The aliphatic compounds were directly added to the medium. […] Growth was monitored as a measure of CFU/ml.
Bacterial doubling time (dt) was calculated by fitting growth curves data points into […] equation, where Q is the bacterial CFU ml^−1 at time t, Qo is the initial bacterial count in the culture, and k is the growth rate. The growth rate (k) was then used to compute dt values according to the equation: dt=ln(2)/k (in days). Values were calculated with Microsoft Excel software (Version). All experiments were carried out in duplicate.

[2] = tested on: Staphylococcus haemoliticus 10SBZ1A strain; experiment: as above
[3] = tested on: Staphylococcus haemoliticus 10SBZ1A strain; experiment: Quantification of BZP and substrate utilization in bacterial culture (GC-MS); settings: control without bacteria
Procedure: Quantification of BZP and substrate utilization. The remaining BZP was quantified in a bacterial culture of 100 ml containing 20 μmol BZP for 18 days, according to the protocol reported by and incorporated by reference to Budiyanto, F, et al. (2017). Characterization of halophilic bacteria capable of efficiently biodegrading the high molecular weight polycyclic aromatic hydrocarbon pyrene. Environmental Engineering Science. June 2018.616-626.
A sample corresponding to one culture flask of 100 ml, was collected every 5 days and subjected to extraction as follows. The samples were sonicated for 30 min and then extracted twice with ethyl acetate (50 ml). The combined organic layers were dehydrated with calcium chloride and then dried under vacuum. Samples were re-dissolved in 500 μl of chloroform prior to analysis by gas chromatography-mass spectrometry (GC-MS). […] Values of quantified BZP were fitted in the exponential decay equation, Qt=Qoe^−kt to obtain the biodegradation rate constant (k); see Lu, J, C Guo, et al. (2014). […]
The mixture was then diluted with 1.0 ml of chloroform prior to its analysis by GC-MS. […] Values of quantified BZP were fitted in the exponential decay equation, Qt=Qoe^−kt to obtain the biodegradation rate constant (k); see Lu et al., International Biodeterioration & Biodegradation 87: 75-80.

c1ccc2c(c1)cc1ccc3cccc4ccc2c1c34 [BZP, benzo(a)pyrene]
growth ([1]; 0% NaCl): No growth
doubling time ([1]; 4-200 μmol of BZP as sole source of carbon): 2 to 10 h
growth ([1]; 20% NaCl): No growth
maximum count ([1]; BZP 20 μmol.1^−1): > 10^9 CFU ml^−1
time at which the maximum growth was achieved ([1]; BZP 400 μmol.1^−1): 15 days
dt values ([1]; BZP 1 to 100 μmol.1^1): 15 to 20 h
maximum count ([1]; BZP 5 to 20 μmol.1^−1): 10^7-10^8 CFU/ml
time to reach maximum growth ([1]; BZP 5 to 20 μmol.1^−1): 6 to 8 days
dt values relative to those at 1 to 100 μmol.1^1 ([1]; BZP 200 and 400 μmol.1^−1): almost doubled
Doubling time (dt, h) ([1]; Salinity 5% NaCl): 44 ± 7 h
Doubling time (dt, h) ([1]; Salinity 5% NaCl, listed as benzo(a)pyrene): 46.8 ± 7.4 h
Doubling time (dt, h) ([1]; Salinity 10% NaCl): 21 ± 1 h
Doubling time (dt, h) ([1]; Salinity 10% NaCl, listed as benzo(a)pyrene): 21.5 ± 1.0 h
Doubling time (dt, h) ([1]; Salinity 15% NaCl): 156 ± 73 h
Doubling time (dt, h) ([1]; Salinity 15% NaCl, listed as benzo(a)pyrene): 156 ± 74 h
Doubling time (dt, h) ([1]; Temperature 35° C.): 28.5 ± 2.4^b h
Doubling time (dt, h) ([1]; Temperature 37° C.): 21.5 ± 1.0^b h
Doubling time (dt, h) ([1]; Temperature 40° C.): 24.5 ± 1.0 h
growth at other pH values ([1]; pH 5, 6, 8 and 9): slow
dt values ([1]; pH 7): 21.49±0.98
Doubling time (dt, h) ([1]; pH 7): 21.5 ± 1.0 h
strain dt in the presence of substrate (FIG. 3) [1]: around 42 h
Doubling time (dt, h) ([2]; Temperature 37° C., strain growing on BaP): 21+1 h
range of dt ([2]; temperatures 35, 37, 40° C.): 21 to 29 h
abiotic degradation [3]: Around 20%

c1ccc2cc3ccccc3cc2c1 [anthracene]
strain dt in the presence of substrate (FIG. 3) [1]: 30 to 33 h

OCC(O)CO [glycerol]
strain dt in the presence of substrate (FIG. 3) [1]: around 11 hours

c1cc2ccc3cccc4ccc(c1)c2c34 [pyrene]
strain dt in the presence of substrate (FIG. 3) [1]: similar
